# Measurements reported in PMC9962029, “Inhibition of Hepatitis B Virus (HBV) by Tachyplesin, a Marine Antimicrobial Cell-Penetrating Peptide” (Pharmaceutics, 2023).
# Residues, ends and D or L forms follow the SMILES beside them.
# Tests used:
# [1] = tested on: HepG2 cells; test: MTT cytotoxicity assay in HepG2 cells; type: cell-based, human; conditions: 48 h, up to 12 µM Tpl, three independent experiments
# Method: (§1) MTT assay was used to identify the non-cytotoxic concentrations of Tpl. Cell viability was measured using MTT (3-(4,5_dimethylthaizol-2-yl)-2,5-diphenyltetrazolium bromide) assay. Approximately 10,000 cells were seeded per well in 96-well plates and kept overnight at 37 °C and 5% CO2 to achieve more than 80% confluency. Thereafter, cells were treated with various concentrations of Tpl for 48 h. After 48 h, media was removed, and cells were washed with PBS. MTT reagent was added at a final concentration of 1 mg/mL and kept for 4 h at 37 °C and 5% CO2. Thereafter, 100 µL of DMSO was added to dissolve the formazan crystals formed, and absorbance was determined at a wavelength of 570 nm with a background wavelength of 630 nm (Multiskan GO microplate spectrophotometer, Thermo Scientific, Waltham, MA, USA).
# [2] = tested on: Huh7 cells; test: MTT cytotoxicity assay in Huh7 cells; type: cell-based, human; conditions: 48 h, up to 12 µM Tpl, three independent experiments
# Method: as §1
structure (smiles),measurement,setting,value
"CC[C@H](C)[C@@H]1NC(=O)CNC(=O)[C@H](CCCNC(=N)N)NC(=O)[C@H](Cc2ccc(O)cc2)NC(=O)[C@@H]2CSSC[C@H](NC1=O)C(=O)N[C@@H](Cc1ccc(O)cc1)C(=O)N[C@@H](CCCNC(=N)N)C(=O)N[C@@H](CCCNC(=N)N)C(=O)N[C@H](C(=O)N[C@@H](CCCNC(=N)N)C(=O)NCC(=O)N[C@@H](CCCCN)C(N)=O)CSSC[C@H](NC(=O)[C@H](Cc1c[nH]c3ccccc13)NC(=O)[C@@H](N)CCCCN)C(=O)N[C@@H](Cc1ccccc1)C(=O)N[C@@H](CCCNC(=N)N)C(=O)N[C@@H](C(C)C)C(=O)N2 [Tpl] (HELM PEPTIDE1{K.W.C.F.R.V.C.Y.R.G.I.C.Y.R.R.C.R.G.K.[am]}$PEPTIDE1,PEPTIDE1,3:R3-16:R3|PEPTIDE1,PEPTIDE1,7:R3-12:R3$$$V2.0)",Cell viability,[1],more than 85%
same,Cell viability,[2],more than 85%
